From US10183080B2, “Use of single dendritic wedge cell penetrating peptides to facilitate cellular delivery of nanoparticles and nanoparticles carrying cargos” (The Government of the United States of America, as …, priority 2016, dated 2019)
Where no end group is shown, it is not given here.

What was measured:
[1] = Dynamic light scattering of QD-peptide conjugates; assay type: physicochemical; details: DLS; 5 peptides/QD; 50 nM QD, 0.1×PBS pH 7.4, 25° C.
Text: Dynamic Light Scattering (DLS) analysis was next undertaken to measure the QD-peptide conjugates hydrodynamic diameter (HD) and diffusion coefficients. Based on the values estimated above, assembly ratios of 5 peptides/QD were utilized during these measurements. The QD-(Arg9)1 conjugate's HD increases from the QD only value of 24.3±1 nm to ˜26.7±1.3 nm. HD values for the QD-(Arg9)2-8 conjugates are essentially the same within experimental error with an average value of 30.5±0.5 nm while the QD-(Arg9)16 increases to ˜33 nm. The diffusion coefficients follow the same trend but in an inverse manner from ˜17 to 13 μm^2/s. […] They support the notion that the peptides are attached via the His6 region to the QD surface and that the polyproline regions span through the PEG layer displaying the poly(Arg) motifs on the QD's surface through the surrounding PEG layer as intended in the synthetic design.
Dynamic light scattering (DLS) measurements were carried out using a ZetaSizer NanoSeries equipped with a HeNe laser source (λ=633 nm, Malvern Instruments Ltd, Worcestershire, UK) and analyzed using Dispersion Technology Software (DTS, Malvern Instruments Ltd). 50 nM concentration solutions of QDs were loaded into disposable cells, and data were collected at 25° C. All samples were prepared in 0.1×PBS buffer pH 7.4. For each sample, the autocorrelation function was the average of five runs of 10 s each and then repeated from three to six times. CONTIN analysis was used to determine the number versus hydrodynamic size profiles for the dispersions studied.

COS-1 cells [2] = assay: Dendritic peptide-mediated delivery of cargo-decorated QDs; assay type: cell-based, African green monkey
Text: Lastly, as proof of concept, tests were made of the ability of the dendritic peptides to facilitate QD delivery, when the QDs are decorated with additional “cargo.” For this, following initial attachment of the (Arg9)n peptides to the QDs, they were further assembled with one of three prototypical cargos, a dye-labeled peptide, a drug-labeled peptide and a fluorescent protein. FIG. 8B presents a series of representative images that highlight some of the results achieved using 520 nm emitting QDs functionalized with a zwitterionic compact ligand 4; this ligand was used as it still allows larger proteins access to the QD surface for (His)n-binding unlike PEG which can sterically preclude them. […] Analogous to the data shown above, peptides with higher (Arg9)n dendrimeric branching, use of higher ratios of peptide/QD, and longer delivery times each served to facilitate higher levels of QD-cargo conjugate uptake into the cells (data not shown).
CdSe/ZnS core/shell QDs with emission maxima centered at 550 nm were synthesized as described. These were rendered hydrophilic through cap exchange of the native hydrophobic ligands with polyethylene glycol-(average MW 750 Da) appended dihydrolipoic acid ligands terminating in methoxy groups (DHLA-PEG750-OMe, see FIG. 1B) as described. For cargo delivery experiments, 520 nm emitting QDs functionalized with a zwitterionic compact ligand 4 (CL4) were utilized.
Aliquots of African green monkey kidney fibroblast-like COS-1 cells (CRL-1650) from American Type Culture Collection (ATCC, Manassas, Va., USA) were cultured in Dulbecco's Modified Eagle's Medium (DMEM, ATCC) supplemented with 10% (v/v) heat-inactivated fetal bovine serum (ATCC) and 1% antibiotic/antimycotic at 37° C. in a humidified atmosphere containing 95% air/5% CO2. Aliquots were allowed to adhere to the culture flask and reach 80% confluency, usually within 3 to 4 days. The monolayer was harvested by washing once with PBS, once with calcium/magnesium-free PBS, and incubating the monolayer with trypsin until detachment from the culture flask (usually within 5 min). Cells were seeded at 1-2×10^4 cells/well in Lab-Tek 8-well chambered No. 1 borosilicate cover glass system (Nalge Nunc, Rochester N.Y., USA) that had been previously coated for at least 4 h with fibronectin (5 μg/mL, Life Technologies). Cells were allowed to adhere to the bottom of the wells by further culture overnight at 37° C. in 95% air/5% CO2 air. Following overnight culture, media was removed and washed with 100 μL of 25 mM HEPES supplemented with 1 mM sodium pyruvate. […]
For cargo delivery experiments, mCherry fluorescent protein was prepared as described in the literature. […] Cytotoxicity assays were determined using the Vybrant® MTT Cell Proliferation Assay Kit. […]

COS-1 cells [3] = assay: Cellular uptake of QD-dendritic peptide bioconjugates (fluorescence/confocal imaging); assay type: cell-based, African green monkey; details: 4 h incubation, 100 nM QD, 5 peptides/QD
Procedure: COS-1 cells were incubated for 4 h with 150 μL of a 100 nM solution of QDs assembled with the (Arg9)1-16 peptide series at ratio of 5/QD. This ratio was chosen since it represents a value where stochastic assembly events are minimized and correlates with ratios used in the DLS and SPR analysis. Cells were then incubated with the Transferrin Alexa647 endosomal marker for another hour prior to washing and processing which included counterstaining with the DAPI nuclear dye as described in the Methods section. FIGS. 4A through 4G present representative micrographs collected from these samples as projections of confocal stacks and side profiles of the cells. […] The bright yellow PL also observed in these images reflects colocalization of the green QDs with the red Alexa647 marker and confirms that the QDs are located in the endolysosomal system with a primary perinuclear localization as expected following endosomal vesicular uptake.
Kinetics of Poly(Arg)1-16-mediated QD uptake into cells were next evaluated. For this, 150 μL of 100 nM QDs assembled with a ratio of 5 peptides/QD were exposed to COS-1 cells for fixed time periods of 0.5, 1, 4, 8 and 24 h. […] Some delivery trends are visible from a comparison across these images. […] The amount and brightness of QD labeling in the endosomes directly correlates with the increase in the dendritic poly(Arg) display on the QD surface. Additionally, as the cellular exposure time increases, the amount of QD uptake increases proportionally as well. The measured PL intensity per cell from these representative images is plotted in FIG. 5B highlighting the general trends. Although some variability was noted (most likely due to the inherent noisy background found in such gross cellular studies), replicate samples reproduced the same generalized trends of increased poly(Arg)n dendritic branching and increased cellular exposure time leading to increased bioconjugate uptake and PL intensity. […]

Substance | HD (hydrodynamic diameter) [1] | comparative performance in cargo delivery experiments (COS-1 cells [2]; low valencies, short delivery times (data not shown)) | delivery of QDs decorated with ~25 doxorubicin labeled peptides (COS-1 cells [2]; ratio 0.5 peptide/QD, 1 h exposure, cargo MW ~50 kDa, 520 nm CL4 QDs) | delivery of ~30 mCherry per QD (COS-1 cells [2]; ratio 1 peptide/QD, 1 h exposure, cargo MW ~850 kDa, 520 nm CL4 QDs) | delivery of QDs decorated with ~30 Cy5 labeled peptides (COS-1 cells [2]; ratio 1 peptide/QD, 2 h exposure, cargo MW ~100 kDa/QD, 520 nm CL4 QDs) | QD uptake (QD PL in confocal micrographs) (COS-1 cells [3])
[(RRRRRRRRRFG)-x-hex-P9G]2-K′WGH6 (peptide RRRRRRRRRFGPPPPPPPPPG; chain KWGHHHHHH) [(Arg9)2, generation 1 dendritic wedge peptide displaying two Arg9 motifs] | 30 ± 1.4 nm | – | – | – | – | –
[RRRRRRRRRFG]4-x-K′K′WP9G2H6 [(Arg9)4] | 30.7 ± 2.0 nm | – | – | – | – | –
[RRRRRRRRRFG]8-x-K′K′K′WP9G2H6 [(Arg9)8] | 30.9 ± 1.4 nm | worked best | allowed delivery | allowed delivery | facilitated delivery | most intense QD PL
[RRRRRRRRRFG]16-x-K′K′K′K′WP9G2H6 [(Arg9)16] | 32.7 ± 4.9 nm | – | – | – | – | most intense QD PL
[RRRRRRRRRFG]-x-hex-hex-WP9G2H6 (RRRRRRRRRFGWPPPPPPPPPGGHHHHHH; not fully specified (residue 11); also: oxime bond (x) between G11 and hexamine spacers) [(Arg9)1, functions as control] | 26.7 ± 1.3 nm | – | – | – | – | no appreciable QD uptake
